These results are taken from US20240316047A1, “INHIBITORS OF RNA HELICASE DHX9 AND USES THEREOF” (ACCENT THERAPEUTICS, INC., priority 2022, published 2024).

SMILES strings stand for the structures.

The target of the first experiment is Human recombinant DHX9 protein (Homo sapiens (Human), UniProt Q08211). The experiment can be described thus: DHX9 ATPase assay (ADP-Glo). Format: biochemical.
Human recombinant DHX9 protein, sequence (Q08211 whole entry): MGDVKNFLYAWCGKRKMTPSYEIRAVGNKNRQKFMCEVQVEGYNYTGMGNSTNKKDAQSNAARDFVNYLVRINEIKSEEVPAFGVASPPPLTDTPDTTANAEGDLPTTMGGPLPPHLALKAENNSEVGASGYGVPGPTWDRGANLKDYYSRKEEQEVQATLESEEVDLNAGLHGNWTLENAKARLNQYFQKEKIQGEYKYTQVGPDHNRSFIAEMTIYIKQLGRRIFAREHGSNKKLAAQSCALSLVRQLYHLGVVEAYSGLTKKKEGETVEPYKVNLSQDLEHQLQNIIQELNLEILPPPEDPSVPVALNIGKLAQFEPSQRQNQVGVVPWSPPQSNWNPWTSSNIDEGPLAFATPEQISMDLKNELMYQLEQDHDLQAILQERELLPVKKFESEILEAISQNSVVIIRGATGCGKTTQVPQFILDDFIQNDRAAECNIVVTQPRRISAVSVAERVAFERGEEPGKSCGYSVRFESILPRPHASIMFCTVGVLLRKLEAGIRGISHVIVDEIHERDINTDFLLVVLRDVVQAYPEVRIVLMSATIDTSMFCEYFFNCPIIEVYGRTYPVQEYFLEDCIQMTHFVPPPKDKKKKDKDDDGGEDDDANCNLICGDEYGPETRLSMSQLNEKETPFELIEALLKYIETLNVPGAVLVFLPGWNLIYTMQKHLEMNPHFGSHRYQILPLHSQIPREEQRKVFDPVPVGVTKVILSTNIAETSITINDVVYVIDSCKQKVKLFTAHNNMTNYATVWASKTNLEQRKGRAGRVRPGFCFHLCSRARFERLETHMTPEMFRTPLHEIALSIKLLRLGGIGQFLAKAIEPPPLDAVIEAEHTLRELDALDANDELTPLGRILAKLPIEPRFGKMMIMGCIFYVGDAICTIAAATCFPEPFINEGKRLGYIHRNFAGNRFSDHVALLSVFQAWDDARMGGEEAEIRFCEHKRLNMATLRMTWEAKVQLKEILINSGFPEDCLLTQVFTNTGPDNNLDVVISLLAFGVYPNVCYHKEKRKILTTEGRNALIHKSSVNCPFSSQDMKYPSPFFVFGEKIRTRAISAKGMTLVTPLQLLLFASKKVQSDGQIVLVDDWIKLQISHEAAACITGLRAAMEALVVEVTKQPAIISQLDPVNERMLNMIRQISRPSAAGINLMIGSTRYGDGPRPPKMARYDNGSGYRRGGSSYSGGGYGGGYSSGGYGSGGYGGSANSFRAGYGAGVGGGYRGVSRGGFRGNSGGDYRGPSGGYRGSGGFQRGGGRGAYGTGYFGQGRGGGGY
Conditions: not given
(ADP-Glo first removes unused ATP, then detects ADP through luciferase.)
For `Cc1cc(C(=O)Nc2cc(Cl)cc(NS(C)(=O)=O)c2)cn1-c1ccc(C#N)cn1` [Example 425], the “DHX9 Biochemical Max Inhibition” value is on record as 90.
Turning to `Cc1cc(C(=O)Nc2cc(Cl)cc(NS(C)(=O)=O)c2)cn1-c1ncc(C(F)(F)F)cn1` [Example 426], the “DHX9 Biochemical Max Inhibition” value was determined as 74.7.
For `CS(=O)(=O)Nc1cc(Cl)cc(NC(=O)c2cnn(-c3ncccc3Oc3cccc(F)c3)c2)c1` [Example 427], the “DHX9 Biochemical Max Inhibition” value turned out to be 58.4.
Regarding `CS(=O)(=O)Nc1cc(Cl)cc(NC(=O)c2cnn(-c3ccccc3COc3cncc(F)c3)c2)c1` [Example 428], the “DHX9 Biochemical Max Inhibition” value is on record as 68.9.
Consider `CN1CCN(c2csc(C(=O)Nc3cc(Cl)cc(NS(C)(=O)=O)c3)c2)C1=O` [Example 431], for which the “DHX9 Biochemical Max Inhibition” value is 73.5.
On to `CN1C(=O)N(c2csc(C(=O)Nc3cc(Cl)cc(NS(C)(=O)=O)c3)c2)C(=O)C1(C)C` [Example 432], for which the “DHX9 Biochemical Max Inhibition” value turned out to be 75.4.
On to `CS(=O)(=O)Nc1cc(Cl)cc(NC(=O)c2cc(N3CCOC3=O)cs2)c1` [Example 433], for which the “DHX9 Biochemical Max Inhibition” value is reported as 71.2.
Take `Cc1sc(C(=O)Nc2cc(Cl)cc(NS(C)(=O)=O)c2)cc1N1CCCC1=O` [Example 434]: the “DHX9 Biochemical Max Inhibition” value worked out at 67.1.
`COc1cnn(-c2csc(C(=O)Nc3cc(Cl)cc(NS(C)(=O)=O)c3)c2)c1` [Example 435]: the “DHX9 Biochemical Max Inhibition” value is reported as 79.1.
For `COc1cnn(-c2cc(C(=O)Nc3cc(Cl)cc(NS(C)(=O)=O)c3)sc2C)c1` [Example 436], the “DHX9 Biochemical Max Inhibition” value was determined as 81.4.
As to `CCOc1ccc(-n2cc(C(=O)Nc3cc(Cl)cc(NS(C)(=O)=O)c3)cc2C)nc1` [Example 437], the “DHX9 Biochemical Max Inhibition” value is reported as 84.2.
As for `CCOc1cnn(-c2cc(C(=O)Nc3cc(Cl)cc(NS(C)(=O)=O)c3)sc2C)c1` [Example 438], the “DHX9 Biochemical Max Inhibition” value is 66.9.
In the case of `Cc1sc(C(=O)Nc2cc(Cl)cc(NS(C)(=O)=O)c2)cc1-n1cc(F)cn1` [Example 439], the “DHX9 Biochemical Max Inhibition” value amounted to 61.5.
Consider `CS(=O)(=O)Nc1cc(Cl)cc(NC(=O)c2cc(-n3cc(F)cn3)cs2)c1` [Example 440], for which the “DHX9 Biochemical Max Inhibition” value is reported as 68.5.
Turning to `COc1cnc(-n2cc(C(=O)Nc3cc(Cl)cc(NS(C)(=O)=O)c3)cc2C)nc1` [Example 441], the “DHX9 Biochemical Max Inhibition” value stood at 72.6.
Regarding `COCCOc1ccc(-n2cc(C(=O)Nc3cc(Cl)cc(NS(C)(=O)=O)c3)cc2C)nc1` [Example 442], the “DHX9 Biochemical Max Inhibition” value is on record as 72.7.
Regarding `Cc1cc(C(=O)Nc2cc(Cl)cc(NS(C)(=O)=O)c2)cn1-c1ccc(C(F)(F)F)cn1` [Example 443], the “DHX9 Biochemical Max Inhibition” value worked out at 76.6.
As to `Cc1cc(C(=O)Nc2cc(Cl)cc(NS(C)(=O)=O)c2)cn1-c1ncc(F)cc1F` [Example 444], the “DHX9 Biochemical Max Inhibition” value came to 72.9.
As for `CCS(=O)(=O)Nc1cc(Cl)cc(NC(=O)c2cc(C)n(-c3ncc(F)cc3F)c2)c1` [Example 445], the “DHX9 Biochemical Max Inhibition” value came to 70.5.
Regarding `CCS(=O)(=O)Nc1cc(Cl)cc(NC(=O)c2cc(C)n(-c3ncc(F)cc3Cl)c2)c1` [Example 446], the “DHX9 Biochemical Max Inhibition” value is given as 64.1.
As for `COCc1ccc(-n2cc(C(=O)Nc3cc(Cl)cc(NS(C)(=O)=O)c3)cc2C)nc1` [Example 447], the “DHX9 Biochemical Max Inhibition” value is 74.9.
Take `CS(=O)(=O)Nc1cc(Cl)cc(NC(=O)c2cc(-c3ncc(F)cn3)c(C3CC3)s2)c1` [Example 448]: the “DHX9 Biochemical Max Inhibition” value was found to be 66.7.
On the same count and under the same terms, with `CCS(=O)(=O)Nc1cc(Cl)cc(NC(=O)c2cc(-c3ncc(F)cn3)c(C3CC3)s2)c1` [Example 449] the figure was 69.5; with `CS(=O)(=O)Nc1cc(Cl)cc(NC(=O)c2cc(-c3ncc(F)cn3)c(Cl)s2)c1` [Example 450], 62.8.
As for `CS(=O)(=O)Nc1cc(Cl)cc(NC(=O)c2cc(C3CC3)n(-c3ncc(F)cn3)c2)c1` [Example 451], the “DHX9 Biochemical Max Inhibition” value came to 73.2.
Same read-out and setting: the result for `Cc1sc(C(=O)Nc2cc(Cl)cc(NS(C)(=O)=O)c2)cc1-c1ncc(OC2CCC2)cn1` [Example 452] reads 80.5.

The experiment is the same for the next values; noted with them: read-out: DHX9 Biochemical Inflection Point.
For `Cc1cc(C(=O)Nc2cc(Cl)cc(NS(C)(=O)=O)c2)cn1-c1ccc(C#N)cn1` [Example 425], the IC50 is 55.5 nM.
Turning to `Cc1cc(C(=O)Nc2cc(Cl)cc(NS(C)(=O)=O)c2)cn1-c1ncc(C(F)(F)F)cn1` [Example 426], the IC50 came out at 58.5 nM.
For the molecule `CS(=O)(=O)Nc1cc(Cl)cc(NC(=O)c2cnn(-c3ncccc3Oc3cccc(F)c3)c2)c1` [Example 427], the IC50 amounted to 122 nM.
Same read-out and setting: the result for `CS(=O)(=O)Nc1cc(Cl)cc(NC(=O)c2cnn(-c3ccccc3COc3cncc(F)c3)c2)c1` [Example 428] reads 70.8 nM.
Take `CN1CCN(c2csc(C(=O)Nc3cc(Cl)cc(NS(C)(=O)=O)c3)c2)C1=O` [Example 431]: the IC50 was found to be 8.6 nM.
Turning to `CN1C(=O)N(c2csc(C(=O)Nc3cc(Cl)cc(NS(C)(=O)=O)c3)c2)C(=O)C1(C)C` [Example 432], the IC50 was 12.1 nM.
On the same count and under the same terms, with `CS(=O)(=O)Nc1cc(Cl)cc(NC(=O)c2cc(N3CCOC3=O)cs2)c1` [Example 433] the figure was 24.1 nM; with `Cc1sc(C(=O)Nc2cc(Cl)cc(NS(C)(=O)=O)c2)cc1N1CCCC1=O` [Example 434], 51.1 nM.
For the molecule `COc1cnn(-c2csc(C(=O)Nc3cc(Cl)cc(NS(C)(=O)=O)c3)c2)c1` [Example 435], the IC50 is 8.7 nM.
Turning to `COc1cnn(-c2cc(C(=O)Nc3cc(Cl)cc(NS(C)(=O)=O)c3)sc2C)c1` [Example 436], the IC50 was found to be 15.7 nM.
Regarding `CCOc1ccc(-n2cc(C(=O)Nc3cc(Cl)cc(NS(C)(=O)=O)c3)cc2C)nc1` [Example 437], the IC50 turned out to be 15.5 nM.
With `CCOc1cnn(-c2cc(C(=O)Nc3cc(Cl)cc(NS(C)(=O)=O)c3)sc2C)c1` [Example 438], the IC50 was 5.8 nM.
For `Cc1sc(C(=O)Nc2cc(Cl)cc(NS(C)(=O)=O)c2)cc1-n1cc(F)cn1` [Example 439], the IC50 worked out at 18.7 nM.
As for `CS(=O)(=O)Nc1cc(Cl)cc(NC(=O)c2cc(-n3cc(F)cn3)cs2)c1` [Example 440], the IC50 turned out to be 37.6 nM.
The same measure, in the same setting: with `COc1cnc(-n2cc(C(=O)Nc3cc(Cl)cc(NS(C)(=O)=O)c3)cc2C)nc1` [Example 441] the figure was 26.5 nM; with `COCCOc1ccc(-n2cc(C(=O)Nc3cc(Cl)cc(NS(C)(=O)=O)c3)cc2C)nc1` [Example 442], 9.3 nM; with `Cc1cc(C(=O)Nc2cc(Cl)cc(NS(C)(=O)=O)c2)cn1-c1ccc(C(F)(F)F)cn1` [Example 443], 59 nM.
As for `Cc1cc(C(=O)Nc2cc(Cl)cc(NS(C)(=O)=O)c2)cn1-c1ncc(F)cc1F` [Example 444], the IC50 came out at 39.1 nM.
For the molecule `CCS(=O)(=O)Nc1cc(Cl)cc(NC(=O)c2cc(C)n(-c3ncc(F)cc3F)c2)c1` [Example 445], the IC50 was found to be 80.8 nM.
Still for that read-out and setting: the result for `CCS(=O)(=O)Nc1cc(Cl)cc(NC(=O)c2cc(C)n(-c3ncc(F)cc3Cl)c2)c1` [Example 446] reads 115 nM; that for `COCc1ccc(-n2cc(C(=O)Nc3cc(Cl)cc(NS(C)(=O)=O)c3)cc2C)nc1` [Example 447], 9 nM.
Same read-out and setting: with `CS(=O)(=O)Nc1cc(Cl)cc(NC(=O)c2cc(-c3ncc(F)cn3)c(C3CC3)s2)c1` [Example 448] the figure was 1750 nM; with `CCS(=O)(=O)Nc1cc(Cl)cc(NC(=O)c2cc(-c3ncc(F)cn3)c(C3CC3)s2)c1` [Example 449], 336 nM; with `CS(=O)(=O)Nc1cc(Cl)cc(NC(=O)c2cc(-c3ncc(F)cn3)c(Cl)s2)c1` [Example 450], 79.1 nM.
For `CS(=O)(=O)Nc1cc(Cl)cc(NC(=O)c2cc(C3CC3)n(-c3ncc(F)cn3)c2)c1` [Example 451], the IC50 came out at 54.3 nM.
Turning to `Cc1sc(C(=O)Nc2cc(Cl)cc(NS(C)(=O)=O)c2)cc1-c1ncc(OC2CCC2)cn1` [Example 452], the IC50 was found to be 32.9 nM.
